This passage reports IC50 results from patent publication US20260166039A1 (SCHRÖDINGER, INC., priority 2022, published 2026).

T1 sequence (P30291 299-569 limits assumed): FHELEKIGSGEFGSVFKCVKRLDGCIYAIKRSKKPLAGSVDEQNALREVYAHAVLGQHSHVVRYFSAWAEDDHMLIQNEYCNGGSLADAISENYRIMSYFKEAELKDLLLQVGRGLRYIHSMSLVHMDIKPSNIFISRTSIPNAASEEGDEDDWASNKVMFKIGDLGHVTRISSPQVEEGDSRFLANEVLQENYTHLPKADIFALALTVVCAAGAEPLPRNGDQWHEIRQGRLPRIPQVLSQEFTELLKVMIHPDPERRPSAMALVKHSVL

This assay has as its target T1, Wee1 kinase domain (Homo sapiens, UniProt P30291).
T1 construct: Wee1 kinase domain was purchased from Carna (catalog #05-177); purchased Carna 05-177
Put plainly: Wee1 Kinase Biochemical Assay (ADP-Glo). The following applies: Wee1 kinase domain, 15 uM ATP, ADP-Glo. The method, then:
Wee1 Kinase Biochemical Assay Protocol
Wee1 kinase domain was purchased from Carna (catalog #05-177). Wee1 kinase activity was determined with Poly(Lys,Tyr 4:1) hydrobromide as a substrate (Sigma-Aldrich) and by measuring ADP production using the ADP-Glo Kinase Assay kit (Promega) following the manufacturer's instructions. The kinase reaction was performed using the following conditions:
Buffer: 40 mM Tris-HCl, 20 mM magnesium chloride, supplemented with 0.1 mg/mL bovine serum albumin and 2 mM DTT. The final reaction mix contained 1 nM Wee1 enzyme, 15 uM ATP, and 2 ng/mL Poly(Lys,Tyr 4:1) hydrobromide substrate. The reaction time was 4 hours at 25° C.
The ADP-Glo signal was measured using the Envision plate reader and the percentage inhibition of kinase activity calculated for each inhibitor tested. Percent inhibition of Wee1 kinase activity was calculated based on the following formula.
[formula] • SSample: the signal of compounds • SHigh Ctrl: the signal of high control (DMSO) • SLow Ctrl: the signal of low control (positive control Wee1 inhibitor at saturating concentration)
A general note: ADP-Glo first removes unused ATP, then detects ADP through luciferase.
One may read the IC50 as the midpoint of a concentration-inhibition curve. A high value points to lower potency. `CNCc1cccc(N2c3nc(Nc4ccc(N5CCCCC5)cc4)ncc3[C@]3(C)COC(C)(C)C[C@H]23)n1` (single isomer, unassigned) [Example 1] displayed an IC50 of 10 to 100 nM.
Then `CN1CCN(c2ccc(Nc3ncc4c(n3)N(c3cccc(C(C)(C)O)n3)[C@H]3CC(C)(C)OC[C@@]43C)cc2)CC1` (single isomer, unassigned) [Example 3], with 100 to 1000 nM.
Then `CNCc1cccc(N2c3nc(Nc4ccc(N5CCOCC5)cc4)ncc3[C@]3(C)COC(C)(C)C[C@H]23)n1` (single isomer, unassigned) [Example 6], with 10 to 100 nM.
The result for `Cc1cc(Nc2ncc3c(n2)N(c2cccc(C(C)(C)O)n2)[C@H]2CC(C)(C)OC[C@@]32C)ccc1C1CCN(C)CC1` (single isomer, unassigned) [Example 7] reads 10 to 100 nM; that for `Cc1cc(Nc2ncc3c(n2)N(c2cccc(C(C)(C)O)n2)[C@H]2CC(C)(C)OC[C@@]32C)ccc1N1CCN(C)CC1` (single isomer, unassigned) [Example 10], 10 to 100 nM; that for `CN1CCC(n2cc(Nc3ncc4c(n3)N(c3cccc(C(C)(C)O)n3)[C@H]3CC(C)(C)OC[C@@]43C)cn2)CC1` (single isomer, unassigned) [Example 12], 100 to 1000 nM.
`CNCc1cccc(N2c3nc(Nc4ccc(N5CCOCC5)c(Cl)c4)ncc3[C@]3(C)COC(C)(C)C[C@H]23)n1` (single isomer, unassigned) [Example 13] showed an IC50 of 10 to 100 nM.
Then `CNCc1cccc(N2c3nc(Nc4ccc(N5CCC(F)(F)CC5)cc4)ncc3[C@]3(C)COC(C)(C)C[C@H]23)n1` (single isomer, unassigned) [Example 15], with 10 to 100 nM; and `CNCc1cccc(N2c3nc(Nc4ccc(N5CCCOCC5)cc4)ncc3[C@]3(C)COC(C)(C)C[C@H]23)n1` (single isomer, unassigned) [Example 17], with 100 to 1000 nM; and `CNCc1cccc(N2c3nc(Nc4ccc(N5CCC(F)(F)C5)cc4)ncc3[C@]3(C)COC(C)(C)C[C@H]23)n1` (single isomer, unassigned) [Example 21], with 100 to 1000 nM.
Then `CNCc1cccc(N2c3nc(Nc4ccc(C(=O)N5CCOCC5)cc4)ncc3[C@]3(C)COC(C)(C)C[C@H]23)n1` (single isomer, unassigned) [Example 23], with 100 to 1000 nM; and `CNCc1cccc(N2c3nc(Nc4ccc(N5CCOCC5)c(C)c4)ncc3[C@]3(C)COC(C)(C)C[C@H]23)n1` (single isomer, unassigned) [Example 25], with 10 to 100 nM.
`CNCc1cccc(N2c3nc(Nc4ccc(N5C(=O)CC[C@@H]5C)cc4)ncc3[C@]3(C)COC(C)(C)C[C@H]23)n1` (single isomer, unassigned) [Example 27] had an IC50 not below 1000 nM.
Then `CNCc1cccc(N2c3nc(Nc4ccc(N5C(=O)CC[C@@H]5C)cc4)ncc3[C@@]3(C)COC(C)(C)C[C@@H]23)n1` (single isomer, unassigned) [Example 28], with less than 10 nM; and `CNCc1cccc(N2c3nc(Nc4ccc(N5C(=O)CC[C@H]5C)cc4)ncc3[C@]3(C)COC(C)(C)C[C@H]23)n1` (single isomer, unassigned) [Example 29], with 10 to 100 nM.
In turn, `CNCc1cccc(N2c3nc(Nc4ccc5c(c4)C(=O)N(C)C5)ncc3[C@]3(C)COC(C)(C)C[C@H]23)n1` (single isomer, unassigned) [Example 31] displayed an IC50 of 100 to 1000 nM.
Then `CNCc1cccc(N2c3nc(Nc4ccc(S(C)(=O)=O)cc4)ncc3[C@]3(C)COC(C)(C)C[C@H]23)n1` (single isomer, unassigned) [Example 33], with 100 to 1000 nM; and `CNCc1cccc(N2c3nc(Nc4ccc(C5CCOCC5)cc4)ncc3[C@]3(C)COC(C)(C)C[C@H]23)n1` (single isomer, unassigned) [Example 36], with 10 to 100 nM; and `CNCc1cccc(N2c3nc(Nc4ccc([C@@H]5CCOC5)cc4)ncc3[C@]3(C)COC(C)(C)C[C@H]23)n1` (single isomer, unassigned) [Example 37], with 100 to 1000 nM.
For the compound `CNCc1cccc(N2c3nc(Nc4ccc([C@H]5CCOC5)cc4)ncc3[C@]3(C)COC(C)(C)C[C@H]23)n1` (single isomer, unassigned) [Example 39], the 50% inhibitory concentration (IC50) was in the range of 100 to 1000 nM.
The result for `CNCc1cccc(N2c3nc(Nc4ccc(N5C[C@H]6C[C@@H]5CO6)cc4)ncc3[C@]3(C)COC(C)(C)C[C@H]23)n1` (single isomer, unassigned) [Example 43] reads 10 to 100 nM; that for `CNCc1cccc(N2c3nc(Nc4ccccc4)ncc3[C@]3(C)COC(C)(C)C[C@H]23)n1` (single isomer, unassigned) [Example 46], 10 to 100 nM; that for `CNCc1cccc(N2c3nc(Nc4cnn(C(C)(C)C)c4)ncc3[C@]3(C)COC(C)(C)C[C@H]23)n1` (single isomer, unassigned) [Example 47], 100 to 1000 nM.
The result for `CNCc1cccc(N2c3nc(Nc4ccc(N5CCS(=N)(=O)CC5)cc4)ncc3[C@]3(C)COC(C)(C)C[C@H]23)n1` (single isomer, unassigned) [Example 50] reads 10 to 100 nM.
The result for `CNCc1cccc(N2c3nc(Nc4ccc([C@@H]5CCC(=O)N5C)cc4)ncc3[C@]3(C)COC(C)(C)C[C@H]23)n1` (single isomer, unassigned) [Example 51] reads not below 1000 nM; that for `CNCc1cccc(N2c3nc(Nc4ccc([C@H]5CCC(=O)N5C)cc4)ncc3[C@]3(C)COC(C)(C)C[C@H]23)n1` (single isomer, unassigned) [Example 53], not below 1000 nM; that for `CNCc1cccc(N2c3nc(Nc4ccc(C5CCOCC5)nc4)ncc3[C@]3(C)COC(C)(C)C[C@H]23)n1` (single isomer, unassigned) [Example 55], not below 1000 nM.
The compound `CNCc1cccc(N2c3nc(Nc4ccc([C@@H]5CCCO5)cc4)ncc3C3(C)COC(C)(C)C[C@H]23)n1` (single isomer, unassigned) [Example 57] displayed an IC50 of 10 to 100 nM.
Then `CNCc1cccc(N2c3nc(Nc4ccc([C@H]5CCCO5)cc4)ncc3[C@]3(C)COC(C)(C)C[C@H]23)n1` (single isomer, unassigned) [Example 58], with not below 1000 nM; and `CNCc1cccc(N2c3nc(Nc4ccc([C@@H]5CCCO5)cc4)ncc3[C@@]3(C)COC(C)(C)C[C@@H]23)n1` (single isomer, unassigned) [Example 59], with less than 10 nM.
Then `CNCc1cccc(N2c3nc(Nc4ccc([C@H]5CCCO5)cc4)ncc3[C@@]3(C)COC(C)(C)C[C@@H]23)n1` (single isomer, unassigned) [Example 60], with less than 10 nM; and `CNCc1cccc(N2c3nc(Nc4ccc([C@H]5CNC(=O)C5)cc4)ncc3[C@]3(C)COC(C)(C)C[C@H]23)n1` (single isomer, unassigned) [Example 62], with 10 to 100 nM; and `CNCc1cccc(N2c3nc(Nc4ccc([C@@H]5CNC(=O)C5)cc4)ncc3[C@]3(C)COC(C)(C)C[C@H]23)n1` (single isomer, unassigned) [Example 64], with 10 to 100 nM.
With `CN=S1(=O)CCN(c2ccc(Nc3ncc4c(n3)N(c3cccc(CNC)n3)[C@H]3CC(C)(C)OC[C@@]43C)cc2)CC1` (single isomer, unassigned) [Example 66], the half-maximal inhibitory concentration (IC50) was in the range of 100 to 1000 nM.
With `CNCc1cccc(N2c3nc(Nc4ccc([C@H]5CC(=O)N(C)C5)cc4)ncc3[C@]3(C)COC(C)(C)C[C@H]23)n1` (single isomer, unassigned) [Example 67], the half-maximal inhibitory concentration (IC50) is 100 to 1000 nM.
The result for `CNCc1cccc(N2c3nc(Nc4ccc([C@@H]5CC(=O)N(C)C5)cc4)ncc3[C@]3(C)COC(C)(C)C[C@H]23)n1` (single isomer, unassigned) [Example 70] reads 10 to 100 nM; that for `CNCc1cccc(N2c3nc(Nc4ccc(C5CCN(C)CC5)c(C)c4)ncc3[C@]3(C)COC(C)(C)C[C@H]23)n1` (single isomer, unassigned) [Example 71], 100 to 1000 nM.
Then `CNCc1cccc(N2c3nc(Nc4ccc(C(C)(C)C)cc4)ncc3[C@]3(C)COC(C)(C)C[C@H]23)n1` (single isomer, unassigned) [Example 74], with 10 to 100 nM; and `CNCc1cccc(N2c3nc(Nc4ccc(C(C)(C)C(=O)N(C)C)cc4)ncc3[C@]3(C)COC(C)(C)C[C@H]23)n1` (single isomer, unassigned) [Example 75], with not below 1000 nM; and `CNCc1cccc(N2c3nc(Nc4ccc([C@]5(C)CCN(C)C5=O)cc4)ncc3[C@]3(C)COC(C)(C)C[C@H]23)n1` (single isomer, unassigned) [Example 77], with 100 to 1000 nM.
Then `CNCc1cccc(N2c3nc(Nc4ccc([C@@]5(C)CCN(C)C5=O)cc4)ncc3[C@]3(C)COC(C)(C)C[C@H]23)n1` (single isomer, unassigned) [Example 79], with 100 to 1000 nM; and `CNCc1cccc(N2c3nc(Nc4ccc(C5(C)COC5)cc4)ncc3[C@]3(C)COC(C)(C)C[C@H]23)n1` (single isomer, unassigned) [Example 83], with not below 1000 nM.
Consider `CNCc1cccc(N2c3nc(Nc4ccc(N5C6CCC5COC6)c(C)c4)ncc3[C@]3(C)COC(C)(C)C[C@H]23)n1` (single isomer, unassigned) [Example 86], for which the half-inhibitory concentration (IC50) lay in the range of 100 to 1000 nM.
Then `CNCc1cccc(N2c3nc(Nc4ccc5c(c4)C(=O)N(C)CC5(C)C)ncc3[C@]3(C)COC(C)(C)C[C@H]23)n1` (single isomer, unassigned) [Example 91], with 100 to 1000 nM.
